Data: patent US12268674B2, “Mi-2β inhibitor as an immunotherapy agent” (BioVentures, LLC, priority 2021, dated 2025)

Experiments:
[1] = target: T1, NMNAT3 (Homo sapiens, UniProt Q96T66); experiment: ATPase profile (ATP acyl phosphate probe); assay type: binding; settings: NMNAT3, SEQ ID NO: 135, ATP BS
T1 construct: to get the native cell lysate; endogenous in cells; host or cells: A375

[2] = Pharmacokinetics of Z36-MP5 in rats; assay type: in vivo; settings: Sprague-Dawley rats; intraperitoneal 1.0 mg/kg
Experimental: Compound Z36-MP5 was evaluated in a pharmacokinetic study in male Sprague-Dawley (SD) rats following intraperitoneal injection of Z36-MP5 at 1.0 mg/kg as a solution in 5% DMSO, 30% PEG400, and 65% corn oil. Blood was collected at 0.25 h, 0.5 h, 1 h, 2 h, 4 h, 8 h, and 24 h following intraperitoneal injection. The blood samples were placed in wet ice, and serum was collected after centrifugation. Serum samples were frozen and stored at −80° C. The serum samples were analyzed utilizing HPLC-coupled tandem mass spectrometry (LC-MS/MS). Values are calculated from arithmetic mean plasma concentrations (n=3 rats per condition).

[3] = tested on: Mi-2β function (CXCL9, CXCL10, IRF1 expression) in A375 cells; experiment: Cell-based assay of inhibitory activity on Mi-2β function, A375; settings: summary of Table 3 (A375 and B16)
Experimental: The total RNA was extracted with QIAGEN RNeasy kit […] for cDNA synthesis with SuperScript II Reverse Transcriptase (Invitrogen). In total, 40 ng cDNA was used for quantitative real-time PCR amplification by TaqMan Gene Expression Master Mix (Thermo Fisher Scientific). The relative transcript levels were normalized with GAPDH expression. The data were calculated with the comparative CT method.

[4] = target: T2, DCTPP1 (Homo sapiens, UniProt Q9H773); experiment: ATPase profile (ATP acyl phosphate probe); assay type: binding; settings: DCTPP1, SEQ ID NO: 65, ATP BS
T2 construct: endogenous in cells; host or cells: A375 cell lysate
T2 sequence (Q9H773 2-170 limits assumed): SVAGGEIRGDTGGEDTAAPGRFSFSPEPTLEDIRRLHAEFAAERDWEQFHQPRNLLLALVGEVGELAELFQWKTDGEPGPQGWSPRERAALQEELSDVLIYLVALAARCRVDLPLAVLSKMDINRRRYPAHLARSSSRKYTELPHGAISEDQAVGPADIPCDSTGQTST

[5] = target: T3, IDI1 (Homo sapiens, UniProt Q13907); experiment: ATPase profile (ATP acyl phosphate probe); assay type: binding; settings: IDI1, SEQ ID NO: 111, ATP BS
T3 construct: endogenous in cells; host or cells: A375
T3 sequence (Q13907 whole entry): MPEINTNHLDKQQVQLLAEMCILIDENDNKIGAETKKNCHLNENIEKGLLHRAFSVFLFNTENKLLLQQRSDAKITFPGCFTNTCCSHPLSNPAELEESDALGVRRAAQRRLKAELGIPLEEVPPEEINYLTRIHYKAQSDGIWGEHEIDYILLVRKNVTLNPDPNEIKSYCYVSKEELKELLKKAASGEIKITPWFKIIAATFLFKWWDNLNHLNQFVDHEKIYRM

[6] = target: T4, RAD17 (Homo sapiens, UniProt O75943); experiment: ATPase profile (ATP acyl phosphate probe); assay type: binding; settings: RAD17, SEQ ID NO: 181, ATP BS
T4 construct: to get the native cell lysate; endogenous in cells; host or cells: A375 cell lysate

[7] = target: T5, RBKS (Homo sapiens, UniProt Q9H477); experiment: ATPase profile (ATP acyl phosphate probe); assay type: binding; settings: SEQ ID NO: 182, ATP BS
T5 construct: to get the native cell lysate; endogenous in cells; host or cells: A375 cell lysate
T5 sequence (Q9H477 whole entry): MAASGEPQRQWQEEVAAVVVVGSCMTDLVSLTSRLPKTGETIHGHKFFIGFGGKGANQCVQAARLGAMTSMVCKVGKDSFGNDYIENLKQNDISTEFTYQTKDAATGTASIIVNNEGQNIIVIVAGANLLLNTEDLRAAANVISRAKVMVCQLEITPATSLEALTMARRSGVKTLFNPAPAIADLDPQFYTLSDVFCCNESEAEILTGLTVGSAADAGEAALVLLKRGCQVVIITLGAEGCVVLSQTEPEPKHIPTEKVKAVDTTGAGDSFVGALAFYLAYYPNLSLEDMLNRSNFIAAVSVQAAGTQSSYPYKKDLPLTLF

[8] = target: T6, NME3 (Homo sapiens, UniProt Q13232); experiment: ATPase profile (ATP acyl phosphate probe); assay type: binding; settings: NME3, SEQ ID NO: 134, ATP BS
T6 construct: to get the native cell lysate; endogenous in cells; host or cells: A375
T6 sequence (Q13232 whole entry): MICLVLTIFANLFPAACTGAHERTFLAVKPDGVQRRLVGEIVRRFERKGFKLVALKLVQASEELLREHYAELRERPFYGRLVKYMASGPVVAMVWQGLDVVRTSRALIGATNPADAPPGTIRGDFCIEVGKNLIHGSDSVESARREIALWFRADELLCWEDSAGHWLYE

[9] = target: T7, SMC1A (Homo sapiens, UniProt Q14683); experiment: ATPase profile (ATP acyl phosphate probe); assay type: binding; settings: SEQ ID NO: 193, ATP BS
T7 construct: to get the native cell lysate; endogenous in cells; host or cells: A375 cell lysate

[10] = target: T8, TK2 (Homo sapiens, UniProt O00142); experiment: ATPase profile (ATP acyl phosphate probe); assay type: binding; settings: TK2, SEQ ID NO: 201, ATP BS
T8 construct: to get the native cell lysate; endogenous in cells; host or cells: A375 cell lysate
T8 sequence (O00142 34-265): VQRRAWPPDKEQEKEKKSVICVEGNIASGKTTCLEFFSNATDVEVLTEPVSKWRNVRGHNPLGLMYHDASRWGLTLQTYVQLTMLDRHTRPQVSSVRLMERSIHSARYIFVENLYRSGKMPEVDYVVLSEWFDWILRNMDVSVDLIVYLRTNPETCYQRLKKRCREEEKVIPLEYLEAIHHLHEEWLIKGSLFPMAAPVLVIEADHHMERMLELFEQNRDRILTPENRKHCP

[11] = target: T9, PDE12 (Homo sapiens, UniProt Q6L8Q7); experiment: ATPase profile (ATP acyl phosphate probe); assay type: binding; settings: PDE12, SEQ ID NO: 155, ATP BS
T9 construct: to get the native cell lysate; endogenous in cells; host or cells: A375 cell lysate
T9 sequence (Q6L8Q7 43-609): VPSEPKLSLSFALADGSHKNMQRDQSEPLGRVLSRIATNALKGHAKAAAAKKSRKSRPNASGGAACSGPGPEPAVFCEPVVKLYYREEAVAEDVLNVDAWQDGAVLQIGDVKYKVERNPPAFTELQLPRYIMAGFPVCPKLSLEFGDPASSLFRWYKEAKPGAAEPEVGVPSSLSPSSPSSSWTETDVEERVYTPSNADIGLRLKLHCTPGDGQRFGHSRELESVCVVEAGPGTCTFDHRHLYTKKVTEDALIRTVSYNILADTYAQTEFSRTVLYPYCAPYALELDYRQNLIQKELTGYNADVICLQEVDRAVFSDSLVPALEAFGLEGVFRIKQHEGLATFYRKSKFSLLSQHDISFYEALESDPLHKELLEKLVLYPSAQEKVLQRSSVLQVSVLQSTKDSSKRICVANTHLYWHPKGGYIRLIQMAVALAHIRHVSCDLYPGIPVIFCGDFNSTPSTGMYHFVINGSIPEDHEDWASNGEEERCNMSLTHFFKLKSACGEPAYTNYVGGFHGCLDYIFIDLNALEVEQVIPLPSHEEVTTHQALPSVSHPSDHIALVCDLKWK

[12] = target: T10, CCT4 (Homo sapiens, UniProt P50991); experiment: ATPase profile (ATP acyl phosphate probe); assay type: binding; settings: CCT4, SEQ ID NO: 53, ATP BS
T10 construct: to get the native cell lysate; host or cells: A375 cell lysate

[13] = target: T11, PFAS (Homo sapiens, UniProt O15067); experiment: ATPase profile (ATP acyl phosphate probe); assay type: binding; settings: SEQ ID NO: 157, ATP BS
T11 construct: to get the native cell lysate; endogenous in cells; host or cells: A375 cell lysate

[14] = tested on: B16F10 cells; experiment: Co-culture assay of B16F10 cells with activated Pmel-1 T cells; assay type: cell-based, mouse; settings: 25 μM; IFN-γ pretreated; activated Pmel-1 T cells 1:1, three days
Experimental: Pmel-1 TCR transgenic mice were purchased from Jackson Laboratory (stock #005023). The CD8 T cells were isolated from spleen and lymph nodes from Pmel-1 transgenic mice using the CD8a^+ T Cell Isolation Kit, mouse (Miltenyi Biotec, Order no: 130-104-075) according to the manufacturer's protocol. Freshly isolated CD8 T cells were stimulated with anti-CD3/CD28 beads (Thermo Fisher Scientific #11452D) for 3 days, and then the recombinant mouse IL-2 (Biolegend, #575406) was added at 20 ng/ml. After 6 days activation, T cells were used for co-culture with B16F10 cells.
B16F10 cells with shMi-2β or shScrambles were transfected with GFP expression vector pcDNA3-EGFP (Plasmid #13031), and the stable cell line was selection with 800 μg/mL G418. For in vitro validation, Mi-2β-deficient B16F10 cells (GFP positive) were mixed with control B16F10 cells (GFP negative) at a 1:1 ratio. The cells were treated with 10 ng/ml of IFN-γ for 24 hours, and then co-cultured with activated Pmel-1 T cells. After three days, the depletion of Mi-2β knockdown B16F10 cells was determined by FACS, comparing the percentage of knockdown cells (GFP positive) to control B16F10 cells (GFP negative).

[15] = target: POLR3A (Homo sapiens, UniProt O14802); experiment: ATPase profile (ATP acyl phosphate probe); assay type: binding; settings: SEQ ID NO: 164, ATP BS
[16] = target: T12, NUDT1 (Homo sapiens, UniProt P36639); experiment: ATPase profile (ATP acyl phosphate probe); assay type: binding
T12 construct: to get the native cell lysate; endogenous in cells; host or cells: A375

[17] = target: T13, PGK1 (Homo sapiens, UniProt P00558); experiment: ATPase profile (ATP acyl phosphate probe); assay type: binding; settings: PGK1, SEQ ID NO: 160, ATP BS
T13 construct: to get the native cell lysate; endogenous in cells; host or cells: A375 cell lysate

[18] = target: T14, PMS2 (Homo sapiens, UniProt P54278); experiment: ATPase profile (ATP acyl phosphate probe); assay type: binding; settings: PMS2, SEQ ID NO: 162, ATP BS
T14 construct: to get the native cell lysate; endogenous in cells; host or cells: A375 cell lysate

[19] = target: T15, SKIV2L (Homo sapiens, UniProt Q15477); experiment: ATPase profile (ATP acyl phosphate probe); assay type: binding; settings: SEQ ID NO: 191, ATP BS
T15 construct: to get the native cell lysate; endogenous in cells; host or cells: A375 cell lysate
T15 sequence (Q15477 whole entry): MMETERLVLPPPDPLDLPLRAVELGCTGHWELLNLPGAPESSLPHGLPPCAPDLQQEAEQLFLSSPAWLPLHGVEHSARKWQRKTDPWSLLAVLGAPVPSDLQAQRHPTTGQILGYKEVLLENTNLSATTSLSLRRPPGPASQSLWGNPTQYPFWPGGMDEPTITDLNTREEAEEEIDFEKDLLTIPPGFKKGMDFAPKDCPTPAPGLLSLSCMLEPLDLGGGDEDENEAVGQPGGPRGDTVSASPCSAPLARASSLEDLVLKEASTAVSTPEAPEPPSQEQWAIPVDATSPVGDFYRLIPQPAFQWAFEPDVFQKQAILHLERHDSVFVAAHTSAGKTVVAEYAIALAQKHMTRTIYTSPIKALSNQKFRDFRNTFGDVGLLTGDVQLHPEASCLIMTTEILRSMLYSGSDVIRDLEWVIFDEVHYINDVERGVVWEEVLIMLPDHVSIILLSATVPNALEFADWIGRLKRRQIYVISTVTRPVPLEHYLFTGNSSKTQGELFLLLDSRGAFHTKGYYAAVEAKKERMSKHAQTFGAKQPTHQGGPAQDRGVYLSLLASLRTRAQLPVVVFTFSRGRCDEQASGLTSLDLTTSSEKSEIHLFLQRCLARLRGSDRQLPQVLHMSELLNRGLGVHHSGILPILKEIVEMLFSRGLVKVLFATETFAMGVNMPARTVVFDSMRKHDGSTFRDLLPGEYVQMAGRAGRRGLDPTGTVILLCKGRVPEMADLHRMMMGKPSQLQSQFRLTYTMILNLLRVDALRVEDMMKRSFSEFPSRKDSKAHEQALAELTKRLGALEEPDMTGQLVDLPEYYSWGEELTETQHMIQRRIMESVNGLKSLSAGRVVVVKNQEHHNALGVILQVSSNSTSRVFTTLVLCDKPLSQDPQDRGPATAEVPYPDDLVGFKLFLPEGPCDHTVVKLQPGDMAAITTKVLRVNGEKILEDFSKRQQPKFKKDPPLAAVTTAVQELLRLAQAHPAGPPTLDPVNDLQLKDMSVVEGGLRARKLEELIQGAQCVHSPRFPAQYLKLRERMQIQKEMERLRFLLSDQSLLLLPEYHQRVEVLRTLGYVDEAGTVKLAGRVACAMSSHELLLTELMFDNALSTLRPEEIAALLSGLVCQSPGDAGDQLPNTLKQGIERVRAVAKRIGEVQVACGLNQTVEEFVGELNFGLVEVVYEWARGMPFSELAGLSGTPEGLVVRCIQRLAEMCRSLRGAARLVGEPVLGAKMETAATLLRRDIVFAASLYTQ

[20] = target: T16, RUVBL1 (Homo sapiens, UniProt Q9Y265); experiment: ATPase profile (ATP acyl phosphate probe); assay type: binding; settings: RUVBL1, SEQ ID NO: 188, ATP BS
T16 construct: to get the native cell lysate; endogenous in cells; host or cells: A375 cell lysate
T16 sequence (Q9Y265 whole entry): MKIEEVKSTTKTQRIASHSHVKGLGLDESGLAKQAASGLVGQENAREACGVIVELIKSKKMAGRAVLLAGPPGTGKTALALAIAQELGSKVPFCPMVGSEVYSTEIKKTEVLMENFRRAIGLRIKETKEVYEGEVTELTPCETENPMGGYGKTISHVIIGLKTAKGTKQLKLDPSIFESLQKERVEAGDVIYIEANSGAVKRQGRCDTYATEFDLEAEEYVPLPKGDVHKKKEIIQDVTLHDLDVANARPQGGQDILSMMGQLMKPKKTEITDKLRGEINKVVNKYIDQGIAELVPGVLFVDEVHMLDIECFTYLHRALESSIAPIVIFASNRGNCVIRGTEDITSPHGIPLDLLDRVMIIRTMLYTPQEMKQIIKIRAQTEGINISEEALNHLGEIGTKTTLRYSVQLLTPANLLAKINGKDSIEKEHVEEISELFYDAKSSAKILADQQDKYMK
T16 sequence (Q9Y230 2-463 partner limits assumed): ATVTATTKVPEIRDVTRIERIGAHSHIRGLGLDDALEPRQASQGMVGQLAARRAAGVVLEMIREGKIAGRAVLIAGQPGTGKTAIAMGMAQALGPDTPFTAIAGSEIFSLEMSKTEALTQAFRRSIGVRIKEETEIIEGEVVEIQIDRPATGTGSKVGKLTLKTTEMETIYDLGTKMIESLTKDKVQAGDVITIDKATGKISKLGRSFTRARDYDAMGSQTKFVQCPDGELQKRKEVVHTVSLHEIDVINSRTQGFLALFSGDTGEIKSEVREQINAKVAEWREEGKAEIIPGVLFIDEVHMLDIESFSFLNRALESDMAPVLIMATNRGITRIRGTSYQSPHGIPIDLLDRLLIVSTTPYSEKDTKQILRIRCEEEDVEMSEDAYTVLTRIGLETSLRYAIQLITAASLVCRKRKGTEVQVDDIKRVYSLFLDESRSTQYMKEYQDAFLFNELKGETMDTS

[21] = target: T17, PKM, PKM2 (Homo sapiens, UniProt P14618); experiment: ATPase profile (ATP acyl phosphate probe); assay type: binding; settings: PKM2, SEQ ID NO: 161, ATP BS
T17 construct: to get the native cell lysate; endogenous in cells; host or cells: A375 cell lysate
T17 sequence (P14618 whole entry): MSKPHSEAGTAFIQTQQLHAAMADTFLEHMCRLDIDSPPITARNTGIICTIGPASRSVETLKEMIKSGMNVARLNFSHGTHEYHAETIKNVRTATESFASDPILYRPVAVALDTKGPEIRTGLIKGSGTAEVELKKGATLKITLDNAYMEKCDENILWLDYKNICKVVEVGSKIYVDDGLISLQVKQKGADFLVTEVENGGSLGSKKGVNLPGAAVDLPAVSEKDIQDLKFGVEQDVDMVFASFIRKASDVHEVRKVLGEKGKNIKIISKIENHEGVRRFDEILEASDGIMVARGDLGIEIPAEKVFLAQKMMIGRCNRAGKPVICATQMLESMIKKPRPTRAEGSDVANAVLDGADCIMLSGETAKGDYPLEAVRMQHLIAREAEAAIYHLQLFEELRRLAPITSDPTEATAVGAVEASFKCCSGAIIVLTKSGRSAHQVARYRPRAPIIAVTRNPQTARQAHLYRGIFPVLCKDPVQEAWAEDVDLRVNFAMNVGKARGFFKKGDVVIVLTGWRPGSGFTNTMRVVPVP

T1 sequence (Q96T66 whole entry): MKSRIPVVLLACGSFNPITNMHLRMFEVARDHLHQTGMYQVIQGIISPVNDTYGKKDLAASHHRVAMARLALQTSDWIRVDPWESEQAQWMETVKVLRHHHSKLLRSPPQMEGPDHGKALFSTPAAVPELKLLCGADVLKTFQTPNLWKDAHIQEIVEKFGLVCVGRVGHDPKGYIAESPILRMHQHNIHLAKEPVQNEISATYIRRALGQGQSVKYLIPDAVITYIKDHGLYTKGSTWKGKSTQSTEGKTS

Compound: Cn1c(=O)[nH]c2ccc(-c3cccc(C(=O)NC4CCn5ccnc5C4)c3)cc21 (centres unmarked) [Z36-MP5, 3-(3-methyl-2-oxo-2,3-dihydro-1H-benzo[d]imidazol-5-yl)-N-(5,6,7,8-tetrahydroimidazo[1,2-a]pyridin-7-yl)benzamide]
- Inhibition (%) by 1 μM Z36-MP5 [1]: 9.62%
- half-life T1/2 [2]: 27 min
- inhibitory activity on Mi-2β function (enhanced expression of IFN-γ-responsive genes) [3]: most effective compound
- Inhibition (%) by 1 μM Z36-MP5 [4]: 12.74%
- Inhibition (%) by 1 μM Z36-MP5 [5]: 5.48%
- Inhibition (%) by 1 μM Z36-MP5 [6]: 15.62%
- Inhibition (%) by 1 μM Z36-MP5 [7]: −1.64%
- Inhibition (%) by 1 μM Z36-MP5 [8]: 1.91%
- Inhibition (%) by 1 μM Z36-MP5 [9]: 5.67%
- Inhibition (%) by 1 μM Z36-MP5 [10]: 14.43%
- Inhibition (%) by 1 μM Z36-MP5 [11]: −5.87%
- Inhibition (%) by 1 μM Z36-MP5 [12]: 11.95%
- Inhibition (%) by 1 μM Z36-MP5 [13]: −4.58%
- T cell-mediated killing of B16F10 cells [14]: significantly induced
- Inhibition (%) by 1 μM Z36-MP5 [15]: 4.31%
- Inhibition (%) by 1 μM Z36-MP5 ([16]; NUDT1, SEQ ID NO: 142, ATP BS): 25.70%
- Inhibition (%) by 1 μM Z36-MP5 ([16]; NUDT1, SEQ ID NO: 143, ATP BS): 22.17%
- Inhibition (%) by 1 μM Z36-MP5 ([16]; NUDT1, SEQ ID NO: 144, ATP BS): 18.32%
- Inhibition (%) by 1 μM Z36-MP5 [17]: −4.49%
- Inhibition (%) by 1 μM Z36-MP5 [18]: 3.36%
- Inhibition (%) by 1 μM Z36-MP5 [19]: −3.49%
- Inhibition (%) by 1 μM Z36-MP5 [20]: −15.57%
- Inhibition (%) by 1 μM Z36-MP5 [21]: 28.24%
